Results published in patent US5225437A, “1,2,4-trioxane compounds having antimalarial activity” (The Johns Hopkins University, priority 1992, dated 1993).
“Also recorded” adds a separate entry of the source. Like-named read-outs stand apart in the source and are kept apart here.

How the values were obtained:
[1] = tested on: P. falciparum malaria parasite clone Indochina (W-2); experiment: in vitro susceptibility testing, uptake of tritiated hypoxanthine as index of inhibition of parasite growth, Indochina (W-2) clone; type: cell-based; conditions: Plasmodium falciparum; for IC50: read-out: W2 IC50
[2] = tested on: P. falciparum malaria parasite clone Sierra Leone (D-6); experiment: in vitro susceptibility testing, uptake of tritiated hypoxanthine as index of inhibition of parasite growth, Sierra Leone (D-6) clone; conditions: Plasmodium falciparum; for IC50: read-out: D6 IC50
[3] = tested on: P. falciparum malaria parasite clones; experiment: anti-malarial activity in words (overall, both P. falciparum clones)
[4] = tested on: D-6 Sierra Leone Clone; conditions: cited from earlier work; for Artemisinin Indices, D-6 Sierra Leone Clone: intrinsic equimolar activity relative to the simultaneous artemisinin control; for IC50: Table V, read-out: Fifty Percent Inhibitory Concentrations, D-6 Sierra Leone Clone
[5] = tested on: W-2 Indochine Clone; conditions: cited from earlier work; for IC50: Table V, read-out: Fifty Percent Inhibitory Concentrations, W-2 Indochine Clone; for Artemisinin Indices, W-2 Indochine Clone: intrinsic equimolar activity relative to the simultaneous artemisinin control
[6] = tested on: P. falciparum D-6 African Clone; experiment: anti-malarial in vitro testing against P. falciparum clones, D-6 African clone; type: cell-based; conditions: Table VI, D-6 value over W-2 value
[7] = Table IV, W2, read-out: W2 IC90
[8] = compared with known anti-malarial drugs
[9] = Table III, INDOCHINA CLONE (W-2), read-out: IC90

| Compound | IC50 [2] [nM] | IC90 [2] [nM] | IC50 ([1]; Table IV, W2) [nM] | Artemisinin Indices, D-6 Sierra Leone Clone [4] | IC50 [5] [nM] | Artemisinin Indices, W-2 Indochine Clone [5] | IC50 [4] [nM] | other results |
| --- | --- | --- | --- | --- | --- | --- | --- | --- |
| CCOP(=O)(COCCC1CCCC2CCC3(C)OOC12C(OC)O3)OCC (stereo not shown) [Compound 103] | 3.03 | – | – | – | – | – | – | IC50 [1]: 0.96 nM; IC90 ([1]; read-out: W2 IC90): 8.2 nM; IC90 ([2]; read-out: D6 IC90): 29.9 nM |
| CCOP(=O)(OCC)OCCC1CCCC2CCC3(C)OOC12C(OC)O3 (stereo not shown) [Compound 28] | – | 0.99 | – | – | – | – | – | anti-malarial activity / potency in words [3]: substantial improvement over artemisinin; also recorded: comparable in potency to arteether; also recorded: higher potency than artemisinin; also recorded: particularly potent |
| COC1OC2(C)CCC3CCCC(CCOCc4ccccc4)C31OO2 (stereo not shown) [Compound 102] | 1.22 | – | 0.25 | – | – | – | – | IC90 [1, 7]: 1.53 nM; anti-malarial activity / potency in words [3, 8]: particularly potent anti-malarial activity; IC90 ([2]; read-out: D6 IC90): 3.27 nM |
| COC1OC2(C)CCC3CCCC(CCI)C31OO2 (stereo not shown) [Compound 301] | 1.14 | – | < 0.32 | – | – | – | – | IC90 [1, 7]: < 0.32 nM; IC90 ([2]; read-out: D6 IC90): 6.33 nM |
| COC1OC2(C)CCC3CCCC(CCOS(=O)(=O)N(C)C)C31OO2 (stereo not shown) [Compound 27] | – | 30.2 | – | – | – | – | – | IC90 [1, 9]: 23 nM |
| CCN(CC)C(=O)OCCC1CCCC2CCC3(C)OOC12C(OC)O3 (stereo not shown) [Compound 34] | 0.39 | – | < 0.28 | – | – | – | – | IC90 [1, 7]: < 0.28 nM; anti-malarial activity / potency in words [3, 8]: comparable in potency to arteether; also recorded: higher potency than artemisinin; also recorded: particularly potent; IC90 ([2]; read-out: D6 IC90): 1.18 nM |
| COC1OC2(C)CCC3CCCC(CCOC(=O)c4ccc(C(=O)O)cc4)C31OO2 (stereo not shown) [Compound 36] | 256 | 115 | 24.2 | – | – | – | – | IC90 [1, 9]: 46.1 nM; IC90 [1, 7]: 979 nM; IC90 ([2]; read-out: D6 IC90): 516 nM |
| C=C[C@H]1C[N@@]2CC[C@H]1C[C@H]2[C@H](O)c1ccnc2ccc(OC)cc12 [Quinine] | – | – | – | 0.09 | – | – | – | – |
| C[C@H]1[C@@H](OCc2ccc(C(=O)O)cc2)O[C@@H]2O[C@@]3(C)CC[C@H]4[C@H](C)CC[C@@H]1[C@@]24OO3 [Artelinic Acid] | – | – | – | 1.08 | 3.3 | 1.94 | 9.73 | – |
| C[C@@H]1CC[C@H]2[C@@H](C)C(=O)O[C@@H]3O[C@@]4(C)CC[C@@H]1[C@]32OO4 [Artemisinin, artemisinin] | 0.69 | – | 0.68 | 1.00 | 6.41 | 1.00 | 10.5 | Ratio of D-6/W-2 [6]: 2.4 |
| CCO[C@H]1O[C@@H]2O[C@@]3(C)CC[C@H]4[C@H](C)CC[C@@H]([C@H]1C)[C@@]24OO3 [Arteether (beta)] | – | – | – | 2.58 | 2.97 | 2.18 | 4.07 | – |
| COC1OC2(C)CCC3CCCC(CCOC(=O)CNC(=O)OC(C)(C)C)C31OO2 (stereo not shown) [Compound 25] | – | 4.43 | – | – | – | – | – | anti-malarial activity / potency in words [3, 8]: substantial improvement over artemisinin |
| COC1OC2(C)CCC3CCCC(CCOC(=O)N(C)C)C31OO2 (stereo not shown) [Compound 26] | – | 3.93 | – | – | – | – | – | IC90 [1, 9]: 1.29 nM; anti-malarial activity / potency in words [3, 8]: particularly potent |
| CCN(CC)CCCC(C)Nc1ccnc2cc(Cl)ccc12 (stereo not shown) [Chloroquine] | 1.21 | – | – | 0.97 | 100 | 0.06 | 10.8 | IC50 [1]: 61.7 nM; Ratio of D-6/W-2 [6]: 0.1 |
| COC(=O)c1ccccc1S(=O)(=O)OCCC1CCCC2CCC3(C)OOC12C(OC)O3 (stereo not shown) [Compound 24] | – | 58.8 | – | – | – | – | – | IC90 [1, 9]: 19.7 nM |
| CCN(CC)C(=O)c1ccc(C(=O)OCCC2CCCC3CCC4(C)OOC23C(OC)O4)cc1 (stereo not shown) [Compound 21] | – | – | – | – | – | – | – | anti-malarial activity / potency in words [3, 8]: substantial improvement over artemisinin; also recorded: comparable in potency to arteether; also recorded: comparable in potency to artemether; also recorded: considerably higher potency than the clinically used Chinese drug, artemisinin |

| Compound | IC50 [2] [nM] | IC90 [2] [nM] | IC50 ([1]; Table IV, W2) [nM] | Artemisinin Indices, D-6 Sierra Leone Clone [4] | IC50 [5] [nM] | Artemisinin Indices, W-2 Indochine Clone [5] | IC50 [4] [nM] | other results |
| --- | --- | --- | --- | --- | --- | --- | --- | --- |
| COC(=O)c1ccc(C(=O)OCCC2CCCC3CCC4(C)OOC23C(OC)O4)cc1 (stereo not shown) [Compound 19] | – | – | – | – | – | – | – | anti-malarial activity / potency in words [3, 8]: substantial improvement over artemisinin; also recorded: comparable in potency to arteether; also recorded: comparable in potency to artemether; also recorded: considerably higher potency than the clinically used Chinese drug, artemisinin |
| CCCCN(CCCC)CCC(O)c1cc2c(Cl)cc(Cl)cc2c2cc(C(F)(F)F)ccc12 (stereo not shown) [Halofantrine] | – | – | – | 1.35 | 0.76 | 8.43 | 7.8 | – |
| COCCC1CCCC2CCC3(C)OOC12C(OC)O3 (stereo not shown) [Compound 101] | – | 13.7 | – | – | – | – | – | IC90 [1, 9]: 4.62 nM |
| COC1OC2(C)CCC3CCCC(CCOS(=O)(=O)c4ccc(C)cc4)C31OO2 (stereo not shown) [Compound 23] | – | 19 | – | – | – | – | – | IC90 [1, 9]: 10.2 nM |
| OC(c1cc(C(F)(F)F)nc2c(C(F)(F)F)cccc12)C1CCCCN1 (stereo not shown) [Mefloquine] | 3.53 | – | 0.11 | 0.31 | 5.75 | 1.11 | 33.4 | – |
| C=CCOCCC1CCCC2CCC3(C)OOC12C(OC)O3 (stereo not shown) [Compound 104] | 1.08 | – | 0.32 | – | – | – | – | IC90 [1, 7]: 2.37 nM; anti-malarial activity / potency in words [3, 8]: particularly potent anti-malarial activity; IC90 ([2]; read-out: D6 IC90): 15.7 nM |
| COC1OC2(C)CCC3CCCC(CCOC(=O)N(c4ccccc4)c4ccccc4)C31OO2 (stereo not shown) [Compound 31] | 0.27 | – | < 0.16 | – | – | – | – | IC90 [1, 7]: < 0.18 nM; anti-malarial activity / potency in words [3, 8]: substantial improvement over artemisinin; also recorded: comparable in potency to arteether; also recorded: higher potency than artemisinin; also recorded: particularly potent; IC90 ([2]; read-out: D6 IC90): 2.25 nM |
| C[C@H]1[C@@H](O)O[C@@H]2O[C@@]3(C)CC[C@H]4[C@H](C)CC[C@@H]1[C@@]24OO3 [Dihydroartemisinin] | – | – | – | 5.75 | 1.79 | 3.58 | 1.83 | – |
| CCc1nc(N)nc(N)c1-c1ccc(Cl)cc1 [Pyrimethamine] | 1.08 | – | > 250 | 26.11 | 176 | 0.03 | 0.4 | – |
| COC1OC2(C)CCC3CCCC(CCOCc4c(C)noc4C)C31OO2 (stereo not shown) [Compound 105] | 1.82 | – | 0.34 | – | – | – | – | IC90 [1, 7]: 1.64 nM; anti-malarial activity / potency in words [3, 8]: particularly potent anti-malarial activity; IC90 ([2]; read-out: D6 IC90): 19.1 nM |
| CCO[C@@H]1O[C@@H]2O[C@@]3(C)CC[C@H]4[C@H](C)CC[C@@H]([C@H]1C)[C@@]24OO3 [Arteether (alpha)] | – | – | – | 2.52 | 3.07 | 2.08 | 4.18 | – |
| COC1OC2(C)CCC3CCCC(CCOC(=O)c4ccc(C(=O)OCCC5CCCC6CCC7(C)OOC56C(OC)O7)cc4)C31OO2 (stereo not shown) [Compound 22] | – | 857 | – | – | – | – | – | – |
| CO[C@H]1O[C@@H]2O[C@@]3(C)CC[C@H]4[C@H](C)CC[C@@H]([C@H]1C)[C@@]24OO3 [Artemether] | – | – | – | 2.34 | 3.34 | 1.92 | 4.49 | – |
| COC1OC2(C)CCC3CCCC(CCOC(=O)c4ccc(C(=O)OCCN(C)C)cc4)C31OO2 (stereo not shown) [Compound 20] | – | 20.4 | – | – | – | – | – | IC90 [1, 9]: 24.7 nM |
| COC1OC2(C)CCC3CCCC(CCOS(=O)(=O)c4cccc5c(N(C)C)cccc45)C31OO2 (stereo not shown) [Compound 32] | 5.16 | – | 1.04 | – | – | – | – | IC90 [1, 7]: 7.17 nM; IC90 ([2]; read-out: D6 IC90): 10 nM |
| COc1ncnc(NS(=O)(=O)c2ccc(N)cc2)c1OC [Sulfadoxine] | – | – | – | 0.11 | 80600 | < 0.01 | 89.4 | – |
